Results: patent publication US20220073536A1 (Rigel Pharmaceuticals, Inc., priority 2003, published 2022)
Structures can show the parent of a compound that is named as a salt. Where two headings read alike, the source gives them in different places.

System: cultured human mast cells (CHMC)
Experiment: CHMC low cell density IgE activation: tryptase assay
Format: cell-based
Conditions: IgE activation
Procedure, shortened: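 CHMC at 1000–1500 cells/well were preincubated 1 hr at 37° C., stimulated with anti-IgE for 30 minutes at 37° C., then pelleted. Supernatant tryptase was measured with a fluorogenic substrate after 30 min at room temperature, against un-stimulated control wells.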

[1] = Homo sapiens, Mast cell, low cell density CHMC, tryptase, 3 pt, read-out: LD Tryptase, CHMC, IgE, 3 pt
[2] = low cell density CHMC, tryptase, 3 pt, read-out: LD Tryptase, CHMC, IgE, 3 pt
[3] = Homo sapiens, Mast cell, low cell density CHMC, tryptase, 8 pt, read-out: LD Tryptase, CHMC, IgE, 8 pt
[4] = low cell density CHMC, tryptase, 8 pt, read-out: LD Tryptase, CHMC, IgE, 8 pt
[5] = low cell density CHMC, tryptase release, 8 pt, read-out: LD Tryptase, CHMC, IgE, 8 pt

| Compound | IC50 [1] [µM] | IC50 [3] [µM] | other results |
| --- | --- | --- | --- |
| Cc1cc(Nc2ncc(F)c(NC3CCC3)n2)cnc1N1CCN(C)CC1 [Compound 1239] | > 10 | – | – |
| Cc1cc(Nc2ncc(F)c(NC3CCCCC3)n2)cnc1N1CCN(C)CC1 [Compound 1241] | < 10 | – | – |
| CN1CCN(c2ccc(Nc3ncc(F)c(NC4CCC4)n3)cc2CO)CC1 [Compound 1243, N4-Cyclobutyl-5-fluoro-N2-[3-hydroxymethyl-4-(4-methylpiperazino)phenyl]-2,4-pyrimidinediamine Bishydrogen chloride salt] | – | – | IC50 [2]: < 10 µM |
| Cc1cc(N2CCN(C)CC2)ncc1Nc1ncc(F)c(NC2CCC2)n1 [Compound 1245] | > 10 | – | – |
| Cc1cc(N2CCN(C)CC2)ncc1Nc1ncc(F)c(NC2CC(C)(C)N(C)C(C)(C)C2)n1 [Compound 1249] | > 10 | – | – |
| Cc1cc(Nc2ncc(F)c(NC3(CO)CCCC3)n2)ccc1N1CCN(C)CC1 [Compound 1250] | < 10 | – | – |
| COc1ccc(Nc2ncc(F)c(Nc3n[nH]c(N)n3)n2)cc1Cl [Compound 1253] | – | > 10 | – |
| Nc1nc(Nc2nc(Nc3ccc(Cl)c(Cl)c3)ncc2F)n[nH]1 [Compound 1254] | – | > 10 | – |
| Cc1cc(C)cc(Nc2ncc(F)c(NCC3COc4ccccc4O3)n2)c1 (centres unmarked) [Compound 1256, N4-[ (2,3-Dihydro-1,4-benzodioxan-2-yl)methyl]-N2-(3,5-dimethylphenyl)-5-fluoro-2,4-pyrimidinediamine] | – | – | IC50 [2]: < 10 µM |
| CNC(=O)COc1cccc(Nc2ncc(F)c(NCC3COc4ccccc4O3)n2)c1 (centres unmarked) [Compound 1257, N4-[ (2,3-Dihydro-1,4-benzodioxan-2-yl)methyl]-5-fluoro-N2-[3-(N-methylamino)carbonylmethyleneoxyphenyl]-2,4-pyrimidinediamine] | – | – | IC50 [4]: < 10 µM |
| COc1cc(Nc2ncc(F)c(NCC3COc4ccccc4O3)n2)cc(OC)c1 (centres unmarked) [Compound 1258, N4-[ (2,3-Dihydro-1,4-benzodioxan-2-yl)methyl]-N2-(3,5-dimethoxyphenyl)-5-fluoro-2,4-pyrimidinediamine] | – | – | IC50 [2]: < 10 µM |
| COc1ccc(Nc2ncc(F)c(NCC3COc4ccccc4O3)n2)cc1Cl (centres unmarked) [Compound 1259, N2-(3-Chloro-4-methoxyphenyl)-N4-[ (2,3-dihydro-1,4-benzodioxan-2-yl)methyl]-5-fluoro-2,4-pyrimidinediamine] | – | – | IC50 [2]: < 10 µM |
| Fc1cnc(Nc2ccc3cn[nH]c3c2)nc1NCC1COc2ccccc2O1 (centres unmarked) [Compound 1260, N4-[ (2,3-Dihydro-1,4-benzodioxan-2-yl)methyl]-5-fluoro-N2-(indazol-6-yl)-2,4-pyrimidinediamine] | – | – | IC50 [4]: < 10 µM |
| COC(=O)c1ccc(Nc2ncc(F)c(Nc3ccc4c(c3)NC(=O)[C@H](C)O4)n2)cc1 [Compound 1263] | – | < 10 | – |
| C[C@H]1Oc2ccc(Nc3nc(Nc4ccc(C(N)=O)cc4)ncc3F)cc2NC1=O [Compound 1265] | – | < 10 | – |
| COC(=O)c1ccc(Nc2ncc(F)c(Nc3ccc4c(c3)NC(=O)[C@@H](C)O4)n2)cc1 [Compound 1266] | – | < 10 | – |
| C[C@H]1Oc2ccc(Nc3nc(Nc4cccc(CN)c4)ncc3F)cc2NC1=O [Compound 1280] | – | – | IC50 [2]: < 10 µM; IC50 [4]: < 10 µM |

| Compound | IC50 [1] [µM] | IC50 [3] [µM] | other results |
| --- | --- | --- | --- |
| COC(=O)c1ccc(Nc2ncc(F)c(Nc3ccc(OC)c(Cl)c3)n2)cc1 [Compound 1322] | – | < 10 | – |
| CNC(=O)CNC(=O)c1ccc(Nc2ncc(F)c(Nc3ccc(OC)c(Cl)c3)n2)cc1 [Compound 1325] | – | – | IC50 [4]: < 10 µM |
| NC(=O)c1ccc(Nc2nc(Cl)ncc2F)cc1 [Compound 1327] | – | > 10 | – |
| NC(=O)c1ccc(Nc2nc(Nc3cc(Cl)c(O)c(Cl)c3)ncc2F)cc1 [Compound 1335] | < 10 | < 10 | – |
| COc1ccc(Nc2ncc(F)c(Nc3ccc(C(N)=O)cc3)n2)cc1Cl [Compound 1336] | < 10 | < 10 | – |
| COC(=O)CNC(=O)c1ccc(Nc2ncc(F)c(Nc3ccc(OCc4nc(C)no4)cc3)n2)cc1 [Compound 1342, 5-Fluoro-N2-(4-[N-[methoxycarbonylmethylene]aminocarbonyl]phenyl)-N4-(4-[3-methyl-1,2,4-oxadiazol-5-yl]methyleneoxyphenyl)-2,4-pyrimidinediamine] | – | – | IC50 [2]: < 10 µM; IC50 [4]: < 10 µM |
| CCN(CC)CCNC(=O)c1ccc(Nc2ncc(F)c(N(C)c3ccc(Cl)c(Cl)c3)n2)cc1 [Compound 1347, N2-(4-[2-[N,N-Diethylamino]ethyleneaminocarbonyl]phenyl)-N4-(3,4-dichlorophenyl)-5-fluoro-N4-methyl-2,4-pyrimidinediamine] | – | – | IC50 [2]: < 10 µM |
| CCN(CC)CCNC(=O)c1ccc(Nc2ncc(F)c(NC3CCCC3)n2)cc1 [Compound 1350, N4-(Cyclopentyl)-N2-(4-[2-(N,N-diethylamino]ethyleneaminocarbonyl)phenyl)-5-fluoro-2,4-pyrimidinediamine] | – | – | IC50 [2]: > 10 µM; IC50 [4]: < 10 µM |
| CCN(CC)CCNC(=O)c1ccc(Nc2ncc(F)c(Nc3ccc(Cl)c(OC)c3)n2)cc1 [Compound 1355, N4-(4-Chloro-3-methoxyphenyl)-N2-(4-[2-[N,N-diethylamino]ethyleneaminocarbonyl]phenyl)-5-fluoro-2,4-pyrimidinediamine] | – | – | IC50 [2]: < 10 µM; IC50 [4]: < 10 µM |
| NC(=O)c1ccc(Nc2ncc(F)c(Nc3ccccc3)n2)cc1 [Compound 1357, N2-(4-Aminocarbonylphenyl)-5-fluoro-N4-phenyl-2,4-pyrimidinediamine] | < 10 | < 10 | – |
| (R)-N2- (3-Chloro-4-methoxyphenyl)-5-fluoro-N4- (2-methyl-3-oxo-2H,4H-benz[1,4]oxazin-6-yl)-2,4-pyrimidinediamine (1R)-(−)-Camphorsulfonic Acid Salt [Compound 212] | – | – | IC50 (low cell density CHMC, tryptase release, 3 pt, read-out: LD Tryptase, CHMC, IgE, 3 pt): < 10 µM; IC50 [5]: < 10 µM |
| (R)-N2- (3-Chloro-4-methoxyphenyl)-5-fluoro-N4- (2-methyl-3-oxo-2H,4H-benz[1,4]oxazin-6-yl)-2,4-pyrimidinediamine (1S)-(+)-Camphorsulfonic Acid Salt [Compound 209] | – | – | IC50 [5]: < 10 µM |
| (R)-N2-[3- (N-tert-Butoxycarbonylamino)methylenephenyl]-5-fluoro-N4- (2-methyl-3-oxo-2H,4H-benz[1,4]oxazin-6-yl) [Compound 1277] | – | – | IC50 [2]: < 10 µM; IC50 [4]: < 10 µM |
| (R,S)-N2- (3,5-Dimethylphenyl)-5-fluoro-N4-(tetrahydrofurano[2,3]-2H-benz[1,4]oxazin-6-yl)-2,4-pyrimidinediamine [Compound 252] | – | – | IC50 [5]: < 10 µM |
| (S)-5-Fluoro-[1- (2-hydroxymethyl)-2-trifluoromethylbenzimidazol-5-yl]-N4- (2-methyl-3-oxo-2H,4H-benz[1,4]oxazin-6-yl)-2,4-pyrimidinediamine [Compound 923] | – | – | IC50 (low cell density, 8 pt, read-out: LD Tryptase, CHMC, IgE, 8 pt): < 10 µM |
| (S)-N2-[3- (N-tert-Butoxycarbonylamino)methylenephenyl]-5-fluoro-N4- (2-methyl-3-oxo-2H,4H-benz[1,4]oxazin-6-yl)-2,4-pyrimidinediamine [Compound 1276] | – | – | IC50 [2]: < 10 µM; IC50 [4]: < 10 µM |
| N2- (2,2-Dimethyl-3-oxo-4H-benz[1,4]oxazin-6-yl)-5-fluoro-N4-(4-[N-[methoxycarbonylmethylene]aminocarbonyl]phenyl)-2,4-pyrimidinediamine [Compound 1331] | – | – | IC50 [2]: < 10 µM; IC50 [4]: < 10 µM |

More lines, main results first:

| IC50 [1] [µM] | IC50 [3] [µM] | Compound | other results |
| --- | --- | --- | --- |
| < 10 | – | Cc1cc(Nc2ncc(F)c(NC3CCCC3)n2)cnc1N1CCN(C)CC1 [Compound 1240, N4-Cyclopentyl-5-fluoro-N2-[2-(4-methylpiperazino)-3-methylpyrid-5-yl]-2,4-pyrimidinediamine] | – |
| < 10 | – | Cc1cc(Nc2ncc(F)c(NC(C)C)n2)cnc1N1CCN(C)CC1 [Compound 1242] | – |
| > 10 | – | Cc1cc(Nc2ncc(F)c(NC3CC(C)(C)N(C)C(C)(C)C3)n2)cnc1N1CCN(C)CC1 [Compound 1244] | – |
| > 10 | – | Cc1cc(N2CCN(C)CC2)ncc1Nc1ncc(F)c(NC2CCCC2)n1 [Compound 1246] | – |
| < 10 | – | Cc1cc(N2CCN(C)CC2)ncc1Nc1ncc(F)c(NC2CCCCC2)n1 [Compound 1247] | – |
| > 10 | – | Cc1cc(N2CCN(C)CC2)ncc1Nc1ncc(F)c(NC(C)C)n1 [Compound 1248] | – |
| – | > 10 | Cc1cc(C)cc(Nc2ncc(F)c(Nc3nc(N)n[nH]3)n2)c1 [Compound 1252] | – |
| > 10 | – | COC(=O)c1ccc(Nc2ncc(F)c(Nc3ccc(Cl)c(Cl)c3)n2)cc1 [Compound 1261] | – |
| < 10 | – | COC(=O)CCNC(=O)c1ccc(Nc2ncc(F)c(Nc3ccc4c(n3)NC(=O)C(C)(C)O4)n2)cc1 [Compound 1312, N4-(2,2-Dimethyl-3-oxo-4H-5-pyrid[1,4]oxazin-6-yl)-5-fluoro-N2-[4-[N-(2-methoxycarbonylethyl)aminocarbonyl]phenyl]-2,4-pyrimidinediamine] | – |
| < 10 | < 10 | NC(=O)c1ccc(Nc2nc(Nc3cccc(O)c3)ncc2F)cc1 [Compound 1334] | – |
| > 10 | > 10 | NC(=O)c1ccc(Nc2ncc(F)c(Nc3ccc(C(N)=O)cc3)n2)cc1 [Compound 1339] | – |
| < 10 | – | CN(c1ccc(Cl)c(Cl)c1)c1nc(Nc2ccc(C(N)=O)cc2)ncc1F [Compound 1346] | – |
| > 10 | – | NC(=O)c1ccc(Nc2ncc(F)c(NC3CCCC3)n2)cc1 [Compound 1349] | – |
| < 10 | – | COc1cc(Nc2nc(Nc3ccc(C(N)=O)cc3)ncc2F)ccc1Cl [Compound 1352] | – |
| < 10 | < 10 | COc1ccc(Nc2nc(Nc3ccc(C(N)=O)c(Cl)c3)ncc2F)cc1Cl [Compound 1353] | – |
| < 10 | < 10 | COc1cc(Nc2nc(Nc3ccc(C(N)=O)c(Cl)c3)ncc2F)ccc1Cl [Compound 1354] | – |
